Test results from publication PMC6706640, “Systematic mapping of protein‐metabolite interactions in central metabolism of Escherichia coli” (Molecular Systems Biology, 2019).

Columns and labels:
[1] = biological target: T1, 6-phosphofructokinase I (PfkA) (Escherichia coli, UniProt P0A796); test: ligand-detected T1rho 1H NMR; format: binding; details: 15 uM monomer, 200 uM metabolite in mix, pH 7.5, 298 K, 5 mM MgCl2
T1 construct: full-length His-tagged protein from ASKA library clone (E. coli K-12 ORF collection)
T1 sequence (P0A796 1-320): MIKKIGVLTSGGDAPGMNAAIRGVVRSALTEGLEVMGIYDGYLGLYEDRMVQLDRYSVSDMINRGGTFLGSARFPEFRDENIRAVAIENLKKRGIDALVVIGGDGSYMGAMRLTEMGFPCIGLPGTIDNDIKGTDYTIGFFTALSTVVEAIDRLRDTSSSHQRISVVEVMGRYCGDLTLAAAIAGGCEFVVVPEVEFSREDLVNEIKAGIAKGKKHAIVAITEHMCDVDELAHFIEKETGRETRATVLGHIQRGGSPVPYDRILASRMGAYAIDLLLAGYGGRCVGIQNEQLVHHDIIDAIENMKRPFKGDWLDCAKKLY

[2] = biological target: T2, NADP+-dependent glucose-6-phosphate dehydrogenase (Zwf) (Escherichia coli, UniProt P0AC53); test: ligand-detected T1rho 1H NMR; inhibition checked by NADPH formation assay; format: biochemical; details: NMR: 15 uM monomer, 200 uM metabolite in mix, pH 7.5, 298 K, 5 mM MgCl2; activity: 2 and 10 mM GTP, 2 mM G6P, 1 mM NADP+, 30 C
T2 construct: full-length His-tagged protein from ASKA library clone (E. coli K-12 ORF collection)
T2 sequence (P0AC53 whole entry): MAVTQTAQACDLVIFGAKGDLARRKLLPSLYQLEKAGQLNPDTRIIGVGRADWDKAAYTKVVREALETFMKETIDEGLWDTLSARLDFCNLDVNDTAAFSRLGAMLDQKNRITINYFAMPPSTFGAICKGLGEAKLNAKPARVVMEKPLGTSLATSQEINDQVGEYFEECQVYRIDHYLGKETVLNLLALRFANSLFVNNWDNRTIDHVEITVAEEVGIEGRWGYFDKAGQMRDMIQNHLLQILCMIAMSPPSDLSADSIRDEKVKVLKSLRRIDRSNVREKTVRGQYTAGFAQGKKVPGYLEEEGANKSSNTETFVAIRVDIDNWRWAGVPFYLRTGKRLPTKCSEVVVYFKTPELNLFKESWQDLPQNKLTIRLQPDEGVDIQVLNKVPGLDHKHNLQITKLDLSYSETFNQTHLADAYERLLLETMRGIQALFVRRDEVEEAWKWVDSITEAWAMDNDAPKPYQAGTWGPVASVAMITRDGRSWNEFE

[3] = biological target: T3, enolase (Eno) (Escherichia coli, UniProt P0A6P9); test: ligand-detected T1rho 1H NMR; format: binding; details: 15 uM monomer, 200 uM metabolite in mix, pH 7.5, 298 K, 5 mM MgCl2
T3 construct: full-length His-tagged protein from ASKA library clone (E. coli K-12 ORF collection)
T3 sequence (P0A6P9 2-432): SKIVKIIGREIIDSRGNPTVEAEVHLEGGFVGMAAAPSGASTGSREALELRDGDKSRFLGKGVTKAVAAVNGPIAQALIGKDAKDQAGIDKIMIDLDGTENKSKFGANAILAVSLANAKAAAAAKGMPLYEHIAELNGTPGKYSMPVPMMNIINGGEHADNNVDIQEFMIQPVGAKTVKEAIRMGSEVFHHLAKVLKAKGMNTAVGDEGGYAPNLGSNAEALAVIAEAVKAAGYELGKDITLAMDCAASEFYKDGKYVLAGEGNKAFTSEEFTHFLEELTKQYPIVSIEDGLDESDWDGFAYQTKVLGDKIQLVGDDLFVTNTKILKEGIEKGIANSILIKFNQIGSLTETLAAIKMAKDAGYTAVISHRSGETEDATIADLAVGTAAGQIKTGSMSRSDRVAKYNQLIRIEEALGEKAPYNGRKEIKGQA

Q: Which ΔRF [1] does the source give for `Nc1ncnc2c1ncn2[C@@H]1O[C@H](COP(=O)(O)O)[C@@H](O)[C@H]1O` [AMP] here?
A: two of which were detected in both datasets (Eno–PEP and PfkA–AMP)

Q: For `Nc1nc2c(ncn2[C@@H]2O[C@H](COP(=O)(O)OP(=O)(O)OP(=O)(O)O)[C@@H](O)[C@H]2O)c(=O)[nH]1` [GTP], which ΔRF [2] is on record?
A: ATP and GTP indeed inhibited Zwf even at physiological concentrations of MgCl2

Q: How did the ΔRF [3] turn out when `C=C(OP(=O)(O)O)C(=O)O` [phosphoenolpyruvate] was run?
A: two of which were detected in both datasets (Eno–PEP and PfkA–AMP)
